Experimental data from ChEMBL document CHEMBL4334492, “Nectriatide, a Potentiator of Amphotericin B Activity from Nectriaceae sp. BF-0114” (J Nat Prod, 2019).
Each block holds one molecule with its values, some of them ahead of it. Activity calls are given as the source filed them. The rule behind the calls is not given here. Non-standard residues stand in square brackets, D forms with d. Residues, ends and D or L forms follow the SMILES beside them. *: point of attachment. NMeY = CN[C@@H](Cc1ccc(O)cc1)C(=O)O; 2Abz = Nc1ccccc1C(=O)O; tBu = CC(C)(C)*

Assays:
Candida albicans [1] = test: Potentiation of amphotericin-induced antifungal activity against Candida albicans ATCC 90029 assessed as fold reduction in amphotericin MIC at 32 ug/ml after 24 hrs by broth microdilution method relative to amphotericin MIC alone; type: functional
Candida albicans [2] = test: Potentiation of amphotericin-induced antifungal activity against Candida albicans ATCC 90029 assessed as amphotericin MIC at 32 ug/ml after 24 hrs by broth microdilution method (reference value: 0.5 ug/ml); type: functional; conditions: ATCC 90029, 24 h
Candida albicans [3] = test: Potentiation of amphotericin-induced antifungal activity against Candida albicans ATCC 90029 assessed as fold reduction in amphotericin MIC at 16 ug/ml after 24 hrs by broth microdilution method relative to amphotericin MIC alone; type: functional
Candida albicans [4] = test: Potentiation of amphotericin-induced antifungal activity against Candida albicans ATCC 90029 assessed as fold reduction in amphotericin MIC at 8 ug/ml after 24 hrs by broth microdilution method relative to amphotericin MIC alone; type: functional
Candida albicans [5] = test: Potentiation of amphotericin-induced antifungal activity against Candida albicans ATCC 90029 assessed as amphotericin MIC at 16 ug/ml after 24 hrs by broth microdilution method (reference value: 0.5 ug/ml); type: functional; conditions: ATCC 90029, 24 h
Candida albicans [6] = test: Potentiation of amphotericin-induced antifungal activity against Candida albicans ATCC 90029 assessed as amphotericin MIC at 8 ug/ml after 24 hrs by broth microdilution method (reference value: 0.5 ug/ml); type: functional; conditions: ATCC 90029, 24 h
Candida albicans [7] = test: Potentiation of miconazole-induced antifungal activity against Candida albicans ATCC 90029 at 64 ug/ml after 24 hrs by broth microdilution assay; type: functional, organism-based
HEK293 [8] = test: Cytotoxicity against human HEK293 cells at 128 ug/ml after 24 hrs by MTT assay; type: cell-based; conditions: hek293, 24 h
Jurkat = test: Cytotoxicity against human Jurkat cells at 128 ug/ml after 24 hrs by MTT assay; type: cell-based
HaCaT = test: Cytotoxicity against human HaCaT cells assessed as reduction in cell viability at 128 ug/ml after 24 hrs by MTT assay; type: cell-based
HCT-116 = test: Cytotoxicity against human HCT116 cells at 128 ug/ml after 24 hrs by MTT assay; type: cell-based; conditions: hct-116, 24 h
HEK293 [9] = test: Cytotoxicity against human HEK293 cells assessed as reduction in cell viability after 24 hrs by MTT assay; type: cell-based; conditions: HEK293, 24 h
Candida albicans [10] = test: Potentiation of micafungin-induced antifungal activity against Candida albicans ATCC 90029 at 64 ug/ml after 24 hrs by broth microdilution assay; type: functional, organism-based
Aspergillus niger [11] = test: Potentiation of amphotericin-induced antifungal activity against Aspergillus niger ATCC 6275 assessed as fold reduction in amphotericin MIC at 32 ug/ml after 48 hrs by broth microdilution method relative to amphotericin MIC alone; type: functional
Rhizopus arrhizus [12] = test: Potentiation of amphotericin-induced antifungal activity against Rhizopus oryzae NBRC4705 assessed as fold reduction in amphotericin MIC at 32 ug/ml after 24 hrs by broth microdilution assay relative to amphotericin MIC alone; type: functional
Rhizopus arrhizus [13] = test: Potentiation of amphotericin-induced antifungal activity against Rhizopus oryzae NBRC4705 assessed as fold reduction in amphotericin MIC at 16 ug/ml after 24 hrs by broth microdilution assay relative to amphotericin MIC alone; type: functional
Rhizopus arrhizus [14] = test: Potentiation of amphotericin-induced antifungal activity against Rhizopus oryzae NBRC4705 assessed as fold reduction in amphotericin MIC at 8 ug/ml after 24 hrs by broth microdilution assay relative to amphotericin MIC alone; type: functional
Rhizopus arrhizus [15] = test: Potentiation of amphotericin-induced antifungal activity against Rhizopus oryzae NBRC4705 assessed as fold reduction in amphotericin MIC at 4 ug/ml after 24 hrs by broth microdilution assay relative to amphotericin MIC alone; type: functional
Rhizopus arrhizus [16] = test: Potentiation of amphotericin-induced antifungal activity against Rhizopus oryzae NBRC4705 assessed as fold reduction in amphotericin MIC at 2 ug/ml after 24 hrs by broth microdilution assay relative to amphotericin MIC alone; type: functional
Saccharomyces cerevisiae [17] = test: Potentiation of amphotericin-induced antifungal activity against Saccharomyces cerevisiae S288c assessed as fold reduction in amphotericin MIC at 32 ug/ml after 24 hrs by broth microdilution assay relative to amphotericin MIC alone; type: functional
Saccharomyces cerevisiae [18] = test: Potentiation of amphotericin-induced antifungal activity against Saccharomyces cerevisiae S288c assessed as fold reduction in amphotericin MIC at 16 ug/ml after 24 hrs by broth microdilution assay relative to amphotericin MIC alone; type: functional
Saccharomyces cerevisiae [19] = test: Potentiation of amphotericin-induced antifungal activity against Saccharomyces cerevisiae S288c assessed as fold reduction in amphotericin MIC at 8 ug/ml after 24 hrs by broth microdilution assay relative to amphotericin MIC alone; type: functional
Saccharomyces cerevisiae [20] = test: Potentiation of amphotericin-induced antifungal activity against Saccharomyces cerevisiae S288c assessed as fold reduction in amphotericin MIC at 4 ug/ml after 24 hrs by broth microdilution assay relative to amphotericin MIC alone; type: functional
Saccharomyces cerevisiae [21] = test: Potentiation of amphotericin-induced antifungal activity against Saccharomyces cerevisiae S288c assessed as fold reduction in amphotericin MIC at 2 ug/ml after 24 hrs by broth microdilution assay relative to amphotericin MIC alone; type: functional
Aspergillus niger [22] = test: Potentiation of amphotericin-induced antifungal activity against Aspergillus niger ATCC 6275 assessed as amphotericin MIC at 32 ug/ml after 48 hrs by broth microdilution method (reference value: 0.25 ug/ml); type: functional; conditions: ATCC 6275, 48 h
Rhizopus arrhizus [23] = test: Potentiation of amphotericin-induced antifungal activity against Rhizopus oryzae NBRC4705 assessed as amphotericin MIC at 32 ug/ml after 24 hrs by broth microdilution assay (reference value: 1 ug/ml); type: functional; conditions: NBRC4705, 24 h
Rhizopus arrhizus [24] = test: Potentiation of amphotericin-induced antifungal activity against Rhizopus oryzae NBRC4705 assessed as amphotericin MIC at 16 ug/ml after 24 hrs by broth microdilution assay (reference value: 1 ug/ml); type: functional; conditions: NBRC4705, 24 h
Rhizopus arrhizus [25] = test: Potentiation of amphotericin-induced antifungal activity against Rhizopus oryzae NBRC4705 assessed as amphotericin MIC at 8 ug/ml after 24 hrs by broth microdilution assay (reference value: 1 ug/ml); type: functional; conditions: NBRC4705, 24 h
Rhizopus arrhizus [26] = test: Potentiation of amphotericin-induced antifungal activity against Rhizopus oryzae NBRC4705 assessed as amphotericin MIC at 4 ug/ml after 24 hrs by broth microdilution assay (reference value: 1 ug/ml); type: functional; conditions: NBRC4705, 24 h
Rhizopus arrhizus [27] = test: Potentiation of amphotericin-induced antifungal activity against Rhizopus oryzae NBRC4705 assessed as amphotericin MIC at 2 ug/ml after 24 hrs by broth microdilution assay (reference value: 1 ug/ml); type: functional; conditions: NBRC4705, 24 h
Saccharomyces cerevisiae [28] = test: Potentiation of amphotericin-induced antifungal activity against Saccharomyces cerevisiae S288c assessed as amphotericin MIC at 32 ug/ml after 24 hrs by broth microdilution assay (reference value: 0.5 ug/ml); type: functional
Saccharomyces cerevisiae [29] = test: Potentiation of amphotericin-induced antifungal activity against Saccharomyces cerevisiae S288c assessed as amphotericin MIC at 16 ug/ml after 24 hrs by broth microdilution assay (reference value: 0.5 ug/ml); type: functional
Saccharomyces cerevisiae [30] = test: Potentiation of amphotericin-induced antifungal activity against Saccharomyces cerevisiae S288c assessed as amphotericin MIC at 8 ug/ml after 24 hrs by broth microdilution assay (reference value: 0.5 ug/ml); type: functional
Saccharomyces cerevisiae [31] = test: Potentiation of amphotericin-induced antifungal activity against Saccharomyces cerevisiae S288c assessed as amphotericin MIC at 4 ug/ml after 24 hrs by broth microdilution assay (reference value: 0.5 ug/ml); type: functional
Saccharomyces cerevisiae [32] = test: Potentiation of amphotericin-induced antifungal activity against Saccharomyces cerevisiae S288c assessed as amphotericin MIC at 2 ug/ml after 24 hrs by broth microdilution assay (reference value: 0.5 ug/ml); type: functional
Saccharomyces cerevisiae [33] = test: Potentiation of amphotericin-induced antifungal activity against Saccharomyces cerevisiae S288c assessed as amphotericin MIC after 24 hrs by broth microdilution assay (reference value: 0.5 ug/ml); type: functional, organism-based
Rhizopus arrhizus [34] = test: Potentiation of amphotericin-induced antifungal activity against Rhizopus oryzae NBRC4705 assessed as amphotericin MIC after 24 hrs by broth microdilution assay (reference value: 1 ug/ml); type: functional, organism-based

SMILES: Nc1ccccc1C(=O)O [ANTHRANILIC ACID]
- Ratio (Candida albicans [1]): 1
- MIC (Candida albicans [2]): 0.5 µg/mL

SMILES: CC(C)[C@H](N)C(=O)N(C)[C@@H](Cc1ccc(OC(C)(C)C)cc1)C(=O)Nc1ccccc1C(=O)N[C@@H](C)C(=O)O (H-V[NMeY](tBu)[2Abz]A-OH)
- Ratio (Candida albicans [1]): 8
- Ratio (Candida albicans [3]): 4
- Ratio (Candida albicans [4]): 2
- MIC (Candida albicans [2]): 0.063 µg/mL
- MIC (Candida albicans [5]): 0.13 µg/mL
- MIC (Candida albicans [6]): 0.25 µg/mL

SMILES: C[C@H](NC(=O)c1ccccc1N)C(=O)O
- Ratio (Candida albicans [1]): 4
- MIC (Candida albicans [2]): 0.13 µg/mL

Molecules with a lower MIC (Candida albicans [2]), results first:

- MIC (Candida albicans [2]): 0.031 µg/mL
- MIC (Candida albicans [5]): 0.063 µg/mL
- MIC (Candida albicans [6]): 0.13 µg/mL
SMILES: CN[C@@H](Cc1ccc(OC(C)(C)C)cc1)C(=O)Nc1ccccc1C(=O)N[C@@H](C)C(=O)N[C@H](C(=O)O)C(C)C (H-[NMeY](tBu)[2Abz]AV-OH)
- Ratio (Candida albicans [1]): 16
- Ratio (Candida albicans [3]): 8
- Ratio (Candida albicans [4]): 4

- MIC (Candida albicans [2]): 0.031 µg/mL
- MIC (Candida albicans [5]): 0.063 µg/mL
- MIC (Candida albicans [6]): 0.13 µg/mL
SMILES: CC(C)[C@H]1NC(=O)[C@H](C)NC(=O)c2ccccc2NC(=O)[C@H](Cc2ccc(O)cc2)N(C)C1=O
- Ratio (Candida albicans [1]): 16
- Ratio (Candida albicans [3]): 8
- Ratio (Candida albicans [4]): 4

- MIC (Aspergillus niger [22]): 0.25 µg/mL
- MIC (Rhizopus arrhizus [23]): 0.25 µg/mL
- MIC (Rhizopus arrhizus [24]): 0.25 µg/mL
- MIC (Rhizopus arrhizus [25]): 0.25 µg/mL
- MIC (Rhizopus arrhizus [26]): 0.5 µg/mL
- MIC (Rhizopus arrhizus [27]): 0.5 µg/mL
- MIC (Saccharomyces cerevisiae [28]): 0.031 µg/mL
- MIC (Saccharomyces cerevisiae [29]): 0.031 µg/mL
- MIC (Saccharomyces cerevisiae [30]): 0.063 µg/mL
- MIC (Saccharomyces cerevisiae [31]): 0.13 µg/mL
- MIC (Saccharomyces cerevisiae [32]): 0.13 µg/mL
- MIC (Candida albicans [2]): 0.031 µg/mL
- MIC (Candida albicans [5]): 0.063 µg/mL
- MIC (Candida albicans [6]): 0.13 µg/mL
SMILES: CC(C)[C@@H]1NC(=O)[C@H](C)NC(=O)c2ccccc2NC(=O)[C@H](Cc2ccc(O)cc2)N(C)C1=O
- Activity (Candida albicans [7]): inactive
- Activity (HEK293 [8]): Non-Toxic
- Activity (Jurkat): Non-Toxic
- Activity (HaCaT): Non-Toxic
- Activity (HCT-116): Non-Toxic
- IC50 (HEK293 [9]): > 128 µg/mL
- Activity (Candida albicans [10]): inactive
- Ratio (Aspergillus niger [11]): 1
- Ratio (Rhizopus arrhizus [12]): 4
- Ratio (Rhizopus arrhizus [13]): 4
- Ratio (Rhizopus arrhizus [14]): 4
- Ratio (Rhizopus arrhizus [15]): 2
- Ratio (Rhizopus arrhizus [16]): 2
- Ratio (Saccharomyces cerevisiae [17]): 16
- Ratio (Saccharomyces cerevisiae [18]): 16
- Ratio (Saccharomyces cerevisiae [19]): 8
- Ratio (Saccharomyces cerevisiae [20]): 4
- Ratio (Saccharomyces cerevisiae [21]): 4
- Ratio (Candida albicans [1]): 16
- Ratio (Candida albicans [3]): 8
- Ratio (Candida albicans [4]): 4
- Activity (Saccharomyces cerevisiae [33]): Dose-dependent effect
- Activity (Rhizopus arrhizus [34]): Dose-dependent effect
